Assay results published in US11730712B2, “Functionalized long-chain hydrocarbon mono- and di-carboxylic acids and derivatives thereof, and their use for the prevention or treatment of disease” (ESPERVITA THERAPEUTICS, INC., priority 2021, dated 2023).

Experiments:
[1] = test system: Hepa1-6 murine hepatoma cells; experiment: Cell proliferation assay (presto blue, 72 h); format: cell-based, mouse; conditions: for Hepa1-6 cell proliferation compared to control, compound alone: 100 μM; for Hepa1-6 cell proliferation compared to control, compound alone / inhibition of Hepa1-6 cell proliferation in combination with lenvatinib vs each agent alone / inhibition of Hepa 1-6 cell proliferation in combination with regorafenib vs individual effects / inhibition of Hepa1-6 cell proliferation in combination with sorafenib vs each agent alone: 72 h; for IC50: Mus musculus, Hepa1-6, 72 h, read-out: Hepa1-6 (IC50), anti-proliferation activity; for synergism with lenvatinib (CI), Hepa1-6 cells: all tested concentrations: 1 μM and 0.3 μM to 100 μM and 30 μM; for inhibition of Hepa1-6 cell proliferation in combination with lenvatinib vs each agent alone: compound 100 μM + lenvatinib 30 μM; for inhibition of Hepa 1-6 cell proliferation in combination with regorafenib vs individual effects: compound 100 μM + regorafenib 5 μM; for inhibition of Hepa1-6 cell proliferation in combination with sorafenib vs each agent alone: compound 100 μM + sorafenib 5 μM
Procedure: (§1) Cell cultures. Hep3B (ATCC) and Hepa1-6 (ATCC) cells were seeded in 96-well plates at a density of 3000 cells/well with complete media. On day 2, media in each well was aspirated and replaced with 100 μl of fresh complete media and cells were treated with or without Compound I-1, Compound I-32, Compound I1-84, and Compound I-85, in a concentration dependent manner. Then, cells were incubated in an incubator for 72 h. On day 5, 10 μl of presto blue (Invitrogen, cat #A13261) cell viability reagent was added in each 96-well plate and incubated at 37° C. for 1-2 h. After incubation, fluorescence was measured with an excitation/emission wavelength of 560/590 nm.
(§2) Proliferation assay. Hep3B (ATCC) and Hepa1-6 (ATCC) cells were seeded in 96-well plates at a density of 3000 cells/well with complete media. On day 2, media in each well was aspirated and replaced with 100 μl of fresh complete media and cells were treated with/without testing compounds in a concentration dependent manner. Then, cells were incubated in an incubator for 72 h. On day 5, 10 μl of presto blue (Invitrogen, cat #A13261) cell viability reagent was added in each 96-well plate and incubated at 37° C. for 1-2 h. After incubation, fluorescence was measured with an excitation/emission wavelength of 560/590 nm. Anti-proliferative combination effects of Compound I-1 or Compound I-32 and regorafenib were determined in Hep3B and Hepa1-6 cells. Drug combination interaction was determined by the Chou-Talalay method (23), which is based on well-known equations for different reaction sequences and mechanisms, and different types of inhibition. These equations provide the theoretical basis for the combination index (CI)-isobologram equation that allows quantitative determination of drug interactions, where CI<1, =1, and >1 indicate synergism, additive effect, and antagonism, respectively. CI is calculated based on in vitro measurements implemented in the Compusyn software (www.combosyn.com), a platform for drug combinations pharmacodynamics with automated simulations. The software calculates CI based on the Fractional Inhibition (Fa), which is the potency expressed by the average effect values for each drug concentrations as determined by in vitro experiments. The dose-effect data entries are utilized for automated computerized analysis by the Compusyn software.
(§3) Data entered was obtained by in vitro experiments performed as follows: Hep3B or Hepa 1-6 cells were plated in a 96-well format and cell proliferation rates were determined as described above. Cells were treated with 5 doses of each test agent alone at the following concentrations: compounds of the invention dosed at 1, 5, 10, 50, or 100 μM for both Hep3B and Hepa1-6 cells, regorafenib dosed at 0.015, 0.075, 0.15, 0.75, and 1.5 μM for Hep3B cells or 0.05, 0.25, 0.5, 2.5, 5 μM for Hepa 1-6 cells. […]. Data are shown as Fa-CI plots where CI is the combination index and Fa is fractional inhibition. Results were indicated as mean±standard deviation (SD). All bar diagrams and line graphs were prepared using Graph Pad Prism 8 software. Drug synergy was calculated using the CompuSyn software.
(§4) Methods: Hep3B cells (supplied by ATCC) and Hepa1-6 cells (supplied by ATCC) were seeded in 96-well plates at a density of 3000 cells/well with complete media. On day 2, the media in each well was aspirated and replaced with 100 μL of fresh complete media, and the cells were treated in a concentration dependent manner with either Compound I-1, Compound I-32, Compound I-84, Compound I-85, sorafenib, lenvatinib, Compound I-1 in combination with sorafenib. Compound I-1 in combination with lenvatinib, Compound I-32 in combination with sorafenib, or Compound I-32 in combination with lenvatinib. The cells were then incubated in an incubator at 37° C. for 72 h. On day 5, 10 μL of presto blue (Invitrogen, cat #A13261) cell viability reagent was added to each 96-well plate and incubated at 37° C. for 1-2 h. […]

[2] = Toxicokinetics in female rat plasma (4-day oral gavage study, Day 1); format: in vivo; conditions: for dose proportionality of increases in mean Cmax and AUC0-24: 100 to 300 mg/kg/day
Procedure: Bioanalytical and Toxicokinetic Analyses. Blood samples (approximately 0.3 mL) were collected from nonfasted toxicokinetic animals via a jugular vein on Day 1 of the dosing phase, as indicated in the following table. Samples were collected predose and approximately 1, 2, 4, and 24 hours postdose.
Blood was collected into tubes containing potassium (K2) EDTA as the anticoagulant. Samples were maintained on chilled cryoracks and were centrifuged within 1 hour of collection. Plasma was harvested into two approximately equal aliquots and stored on dry ice until placed in a freezer, set to maintain −60 to −80° C., until analyzed. Plasma samples were analyzed for Compound I-1 and Compound I-32 content using a generic Tier 1 qualified liquid chromatography-tandem mass spectrometry (LC-MS/MS) method.
In-Life Phase. Animals were dosed once daily for up to 4 days via oral gavage at a volume of 10 mL/kg. Animals in Group 2 and 3 were administered Compound I-1. Animals in Group 4 and 5 were administered Compound I-32. The control article for Group 1 was 1.5% (w/v) carboxymethyl cellulose+0.2% (v/v) Tween 20 in deionized (DI) water. The vehicle used to prepare Compound I-1 and Compound I-32 formulations was 3% (w/v) carboxymethyl cellulose+0.4% (v/v) Tween 20 in DI water.

[3] = test system: Hep3B human hepatocarcinoma cells; experiment: Cell proliferation assay (presto blue, 72 h); format: cell-based; conditions: for Hep3B cell proliferation compared to control, compound alone: 100 μM; for Hep3B cell proliferation compared to control, compound alone / IC50 / inhibition of Hep3B cell proliferation in combination with lenvatinib vs each agent alone / inhibition of Hep3B cell proliferation in combination with regorafenib vs individual effects / inhibition of Hep3B cell proliferation in combination with sorafenib vs each agent alone: 72 h; for IC50: Homo sapiens, Hep3B, read-out: Hep3B (IC50), anti-proliferation activity; for inhibition of Hep3B cell proliferation in combination with lenvatinib vs each agent alone: compound 100 μM + lenvatinib 0.5 μM; for inhibition of Hep3B cell proliferation in combination with regorafenib vs individual effects: compound 100 μM + regorafenib 1.5 μM; for inhibition of Hep3B cell proliferation in combination with sorafenib vs each agent alone: compound 100 μM + sorafenib 3 μM
Procedure: as §1, §2, §3, §4

[4] = female rat plasma, 100 mg/kg/day oral gavage, Day 1

Row | SMILES | Hepa1-6 cell proliferation compared to control, compound alone [1] | IC50 [1] [µM] | synergism with lenvatinib (CI), Hepa1-6 cells [1] | inhibition of Hepa1-6 cell proliferation in combination with lenvatinib vs each agent alone [1] | inhibition of Hepa 1-6 cell proliferation in combination with regorafenib vs individual effects [1] | inhibition of Hepa1-6 cell proliferation in combination with sorafenib vs each agent alone [1] | dose proportionality of increases in mean Cmax and AUC0-24 ([2]; female rat) | Hep3B cell proliferation compared to control, compound alone [3] | IC50 [3] [µM] | inhibition of Hep3B cell proliferation in combination with lenvatinib vs each agent alone [3] | inhibition of Hep3B cell proliferation in combination with regorafenib vs individual effects [3] | inhibition of Hep3B cell proliferation in combination with sorafenib vs each agent alone [3] | other results
1 | CC(C)(CCCCc1ccc(CCCCC(C)(C)C(=O)O)cc1)C(=O)O [Compound I-1, 6-[4-(5-carboxy-5-methylhexyl)-phenyl]-2,2-dimethylhexanoic acid] | inhibited Hepa1-6 cell proliferation compared to control | > 100 | synergism | significantly greater inhibition of Hepa1-6 cell proliferation | greater inhibition of cell proliferation compared to their individual effects | significantly greater inhibition of Hepa1-6 cell proliferation | less than dose proportional | inhibited Hep3B cell proliferation compared to control | > 100 | significantly greater inhibition of Hep3B cell proliferation | greater inhibition of cell proliferation compared to their individual effects | significantly greater inhibition of Hep3B cell proliferation | synergism with sorafenib (CI), Hepa1-6 cells ([1]; all tested concentrations: 1 μM and 0.05 μM to 100 μM and 5 μM): synergism; AUC0-24 [2, 4]: 5,460,000 h*ng/mL; Tmax [2, 4]: 2.00 h; Tmax ([2]; female rat plasma, 300 mg/kg/day oral gavage, Day 1): 1.00 h; synergism with sorafenib (CompuSyn CI), Hep3B cells ([3]; compound 5 μM and sorafenib 0.15 μM): Modest synergism; synergism with lenvatinib (CompuSyn CI), Hep3B cells ([3]; compound 10 μM and lenvatinib 0.05 μM): Moderate synergism; synergism with lenvatinib (CompuSyn CI), Hep3B cells ([3]; compound and lenvatinib: 50 μM and 0.25 μM, 100 μM and 0.5 μM): significant synergism; synergism with sorafenib (CompuSyn CI), Hep3B cells ([3]; compound and sorafenib: 1 μM and 0.03 μM, 50 μM and 1.5 μM, 100 μM and 3 μM): significant synergism
2 | CC(C)(CCCCc1cccc(CCCCC(C)(C)C(=O)O)c1)C(=O)O [Compound I-32, 6-[3-(5-carboxy-5-methylhexyl)-phenyl]-2,2-dimethylhexanoic acid] | inhibited Hepa1-6 cell proliferation compared to control | > 100 | synergism | significantly greater inhibition of Hepa1-6 cell proliferation | greater inhibition of cell proliferation compared to their individual effects | significantly greater inhibition of Hepa1-6 cell proliferation | approximately dose proportional | inhibited Hep3B cell proliferation compared to control | > 100 | significantly greater inhibition of Hep3B cell proliferation | greater inhibition of cell proliferation compared to their individual effects | significantly greater inhibition of Hep3B cell proliferation | synergism with sorafenib (CI), Hepa1-6 cells ([1]; compound and sorafenib: 1 μM and 0.05 μM, 10 μM and 0.25 μM, 50 μM and 2.5 μM, 100 μM and 5 μM): significant synergism; Cmax ([2]; Wistar Han, plasma, oral, female rat, 300 mg/kg/day, Day 1, read-out: mean maximum observed concentration (Cmax)): 406 µg/mL; synergism with sorafenib (CI), Hep3B cells ([3]; all tested concentrations: 1 μM and 0.05 μM, 5 μM and 0.15 μM, 10 μM and 0.3 μM, 50 μM and 1.5 μM, 100 μM and 3 μM): synergism; synergism with lenvatinib (CompuSyn CI), Hep3B cells ([3]; compound 5 μM and lenvatinib 0.025 μM): Modest synergism; synergism with lenvatinib (CompuSyn CI), Hep3B cells ([3]; compound and lenvatinib: 1 μM and 0.005 μM, 10 μM and 0.05 μM, 50 μM and 0.25 μM, 100 μM and 0.5 μM): significant synergism
